Measurements reported in patent US20180170776A1, “ANTI-MICROBIAL ADDITIVE FOR USE IN FLOWER VASE WATER” (Enhold B.V., priority 2008, published 2018).

Tests used:
[1] = tested on: mixed bouquet of 12 flowers; test: Flower life of a mixed bouquet of cut flowers in a vase with 1 litre of solution; assay type: in vivo, Rosa, Chrysanthemum santini, Gerbera, Antirrhinum, Solidago; settings: 1 litre solution, 20° C., 12 per 24 hours of 1000 lux, additions per litre of base solution (BZC 30 ppm, GOX 100 SRU)
Experimental: A mixed bouquet of 12 flowers composed as follows: was placed in a vase with 1 litre of solution. The solution was either tap water or an aqueous base solution containing 10 g/1 of a composition containing 94.66% glucose, 5% citric acid, 0.34% conventional biocides. […] The vases with flowers were placed under 12 per 24 hours of 1000 lux, at 20° C.

[2] = tested on: bacterial contamination; test: Bacterial contamination after 7 days; assay type: cell-based; settings: for CFU (bacterial contamination after 7 days): below 10 hardly or not contaminated, above 1,000 heavily contaminated, additions per litre of base solution (BZC 30 ppm, GOX 100 SRU); for effect on bacterial contamination (in words): summary of the table
Experimental: was placed in a vase with 1 litre of solution. The solution was either tap water or an aqueous base solution containing 10 g/1 of a composition containing 94.66% glucose, 5% citric acid, 0.34% conventional biocides. […] The vases with flowers were placed under 12 per 24 hours of 1000 lux, at 20° C.

| Substance | FL (flower life) [1] [days] | CFU (bacterial contamination after 7 days) [2] | effect on bacterial contamination (in words) [2] |
| --- | --- | --- | --- |
| benzalkonium chloride [BZC] | 12.0 | 900 1000 CFU/g stem | strong effect |
| glucose oxidase [GOX] | 12.7 | 4,400 1000 CFU/g stem | strong effect |
